Reference: the NIST ThermoML archive (doi:10.1016/j.tca.2015.03.015)
± gives the expanded uncertainty stated by the source.

Experiment: mn = molality of the nth substance listed, in mol/kg
Details: 100 kPa, Liquid; for speed of sound: Frequency=3 MHz, Sing-around technique in a fixed-path interferometer; for mass density: Vibrating tube method

O=C(CO)[C@@H](O)[C@H](O)[C@H](O)CO [D-fructose] + O
Details | mass density, 288.15 K [kg/m3] | mass density, 293.15 K [kg/m3] | mass density, 298.15 K [kg/m3] | mass density, 303.15 K [kg/m3] | mass density, 308.15 K [kg/m3] | speed of sound, 288.15 K [m/s] | speed of sound, 298.15 K [m/s] | speed of sound, 303.15 K [m/s] | speed of sound, 308.15 K [m/s]
m1 = 0.05 | 1003.31 ± 0.16 | 1002.37 ± 0.16 | 1001 ± 0.16 | 999.53 ± 0.16 | 998.08 ± 0.16 | – | – | 1512.2 ± 2.2 | –
m1 = 0.15 | – | 1009.21 ± 0.16 | – | – | 1004.78 ± 0.16 | – | – | 1518.1 ± 2.2 | –
m1 = 0.25 | 1017.01 ± 0.17 | 1015.91 ± 0.17 | 1014.56 ± 0.17 | 1013.07 ± 0.17 | – | 1484.3 ± 2.2 | 1513 ± 2.2 | – | 1534.2 ± 2.2
m1 = 0.35 | 1023.52 ± 0.17 | 1022.43 ± 0.17 | 1021.07 ± 0.17 | 1019.48 ± 0.17 | 1017.69 ± 0.17 | 1491.3 ± 2.2 | 1519.1 ± 2.2 | 1530.3 ± 2.2 | 1539.9 ± 2.2
